Laboratory results as given in patent publication US20240122905A1, “PHARMACEUTICAL COMPOSITION” (MedinCell S.A., priority 2020, published 2024).

Assay: PK1: absolute/subcutaneous bioavailability study of Tacrolimus solution (IV and SC)
Type: in vivo, female Göttingen minipig
Settings: for AUClast/D1 / AUC∞/D1 / Cmax/D1: dose-normalized by actual dose per kg
Protocol: PK1: A 2-Month Pharmacokinetic Study of Different Sustained-Release Formulations of Tacrolimus after Subcutaneous Administration and Subcutaneous Bioavailability Study of Tacrolimus in Female Göttingen Minipig
Evaluation of the Absolute Bioavailability of Tacrolimus
The dose volume for each animal was 12.5 mL corresponding to a unique dose of 2.5 mg/animal. Solution was administered: • intravenously into the ear vein using 20 mL polypropylene syringe and 23 G butterfly needle. • subcutaneously in a skin fold caudal to the axillar region/shoulder using 20 mL polypropylene syringe and 21 G needle.
Blood samples were collected into EDTA tubes at predose and at different time points: • Intravenous dosing: 5 min (0.083 h), 15 min (0.25 h), 30 min (0.5 h), and 1, 2, 6, 24, 48, 72 and 96 h after end of dosing. • Subcutaneous dosing: 30 min (0.5 h), and 1, 2, 4, 6, 10, 24, 48, 72 and 96 h after end of dosing.
Whole blood samples were analyzed to determine the concentration of the test item using a qualified analytical procedure. 2-Month Pharmacokinetic Study of Sustain-Release Formulations

[1] = Tacrolimus solution 2.5 mg/animal IV
[2] = Tacrolimus solution 2.5 mg/animal SC
[3] = female, Göttingen, minipig, Tacrolimus solution 2.5 mg/animal IV, whole blood
[4] = female, Göttingen, minipig, Tacrolimus solution 2.5 mg/animal SC, whole blood

- AUClast/D1 [1]: 17900 ± 1620 kg·ng·h/mL/mg
- AUC∞/D1 [1]: 19700 ± 1750 kg·ng·h/mL/mg
- Clast (Tacrolimus solution 2.5 mg/animal IV, whole blood): 4.22 ± 2.08 ng/mL
- tlast (Tacrolimus solution 2.5 mg/animal IV, whole blood, median (range)): 95.7 (95.7-96.1)^$ h
- AUClast/D1 [2]: 17100 ± 1090 kg·ng·h/mL/mg
- AUC∞/D1 [2]: 18100 ± 1150 kg·ng·h/mL/mg
- Cmax/D1 [2]: 779 ± 30.8 kg·ng/mL/mg
- Cmax/D1 (Tacrolimus solution 2.5 mg/animal SC, listed as immediate release compound): 779 kg·ng/mL/mg
- Clast (Tacrolimus solution 2.5 mg/animal SC, whole blood): 2.89 ± 0.759 ng/mL
- tlast (Tacrolimus solution 2.5 mg/animal SC, whole blood, median): 96 h
- bioavailability (female, Göttingen, minipig, whole blood, subcutaneous, Tacrolimus solution 2.5 mg/animal SC vs IV): 92.4%
- AUC(0-inf) [3]: 2040 ± 258 ng·h/mL
- AUC(0-t) [3]: 1850 ± 224 ng·h/mL
- half-life [3]: 31.5 ± 1.62 h
- AUC(0-inf) [4]: 1870 ± 189 ng·h/mL
- AUC(0-t) [4]: 1760 ± 169 ng·h/mL
- Cmax [4]: 80.2 ± 2.63 ng/mL
- half-life [4]: 25.7 ± 2.25 h
- Tmax (female, Göttingen, minipig, Tacrolimus solution 2.5 mg/animal SC, whole blood, median): 4 h
SMILES: C=CC[C@@H]1/C=C(\C)C[C@H](C)C[C@H](OC)[C@H]2O[C@@](O)(C(=O)C(=O)N3CCCC[C@H]3C(=O)OC(/C(C)=C/[C@@H]3CC[C@@H](O)[C@H](OC)C3)[C@H](C)[C@@H](O)CC1=O)[C@H](C)C[C@@H]2OC (stereo partly shown) [Tacrolimus]
